{
  "source": "paper PMC8624133",
  "about": "“10th Trends in Medical Mycology Held on 8 to 11 October 2021, Aberdeen, Scotland, Organized by the European Confederation of Medical Mycology (ECMM)” (Journal of Fungi, 2021)",
  "key": {"[1]": {"assay": "Triazole drug levels in ABPA patients with asthma", "type": "in vivo, human", "details": "452 patients, Oct 2009 to March 2021", "excerpt": "Materials & Methods: This was a retrospective single-centre cohort study evaluating longitudinal outcomes in non-cystic fibrosis (CF) ABPA patients with underlying chronic lung disease (asthma), and description of treatment approaches. Statistical Analysis System (SAS) programming was used for data integration from multiple hospital electronic systems, for patient identification and data analysis. Criteria for inclusion were patients with a background of asthma, serum Total IgE >1000 IU/mL and a positive Aspergillus IgE, with or without a positive culture for A. fumigatus from a respiratory sample. Data collected included demographics, lung function severity, disease activity serological markers (Aspergillus IgE, Aspergillus IgG, Total IgE) and triazole levels. In this study the impact of fungal therapy on disease outcomes was assessed."}, "[2]": {"test_system": "A. fumigatus veterinary isolates", "assay": "EUCAST microdilution of veterinary isolates", "type": "cell-based, Aspergillus fumigatus", "method": "All have been confirmed as A. fumigatus by MALDI-TOF MS using the BCCM/IHEM database. The antifungal susceptibility was evaluated using the microdilution EUCAST method. Cyp51A gene sequencing has been performed on all resistant isolates."}, "[3]": {"test_system": "A. fumigatus isolates", "assay": "AFST by EUCAST method and direct inoculation of spore suspensions", "quoted_text": "Material/methods: We used two methods for AFST: In the standard “EUCAST method”, AFST was performed using spores from a maturated colony. In the “direct inoculation method”, AFST was performed using the spore suspensions that were either stored or sent from other laboratories directly without a subculturing phase. Three groups of isolates were analyzed. […] Spore suspensions were prepared and AFST was performed daily after storing the isolates for 4 days at room temperature, and after 4 days for spore suspensions stored at 2–4 °C and at 28 °C. All measurements were performed in triplicate. Group II, retrospective analysis: 50 isolates that were sent to our laboratory as spore suspensions were tested using the direct inoculation method and stored at −70 °C in glycerol broth. The stored isolates were revived and AFST was repeated using the EUCAST method. Group III: prospective analysis: 30 isolates that were sent to our laboratory as spore suspensions were tested using the direct inoculation method and simultaneously using the EUCAST methods without storage at −70 °C. MICs based on the EUCAST and direct inoculation methods were compared."}, "[4]": {"test_system": "Candida isolates", "type": "cell-based, Candida spp."}, "[5]": {"test_system": "R. delemar 99–880", "assay": "CLSI M38 in vitro susceptibility", "type": "cell-based, Rhizopus delemar", "details": "Rhizopus delemar, read-out: MIC at 100% inhibition of growth", "method": "Methods & Materials: In vitro susceptibility was conducted by the CLSI M38 method using a clinical isolate of Rhizopus delemar (a common cause of mucormycosis). ICR mice were immunosuppressed with cyclophosphamide and cortisone acetate on days −2, +3, and +8, relative to infection with intratracheally instilled R. delemar. […] Mice survival through Day +21 served as the primary endpoint."}, "[6]": {"test_system": "Rhizopus arrhizus", "assay": "E test", "type": "cell-based"}, "[7]": {"test_system": "C. albicans", "assay": "Candidemia Netherlands, MIC distributions against EUCAST ECOFF", "type": "cell-based, Candida albicans"}, "[8]": {"test_system": "C. glabrata", "assay": "Candidemia Netherlands, MIC distributions against EUCAST ECOFF", "type": "cell-based, Candida glabrata"}, "[9]": {"test_system": "C. parapsilosis", "assay": "Candidemia Netherlands, MIC distributions against EUCAST ECOFF", "type": "cell-based, Candida parapsilosis"}, "[10]": {"test_system": "C. parapsilosis", "assay": "Vitek and EUCAST microdilution susceptibility", "type": "cell-based, Candida parapsilosis", "details": "Lodderomyces parapsilosis"}, "[11]": {"test_system": "Phaeoacremonium parasiticum", "assay": "Antifungal susceptibility testing", "type": "cell-based", "method": "Results: Cultures for bacteria were sterile. Culture on Sabouraud was positive after 5 days of incubation, showing slow growing and initially white colonies. […] Its identification was performed by sequencing the internal transcribed spacer (ITS) region of ribosomal DNA, being the isolate identified as Phaeoacremonium parasiticum (100% homology)."}, "[12]": {"test_system": "C. krusei", "type": "cell-based, Candida krusei"}, "[13]": {"test_system": "C. fermentati", "assay": "EUCAST E. Def 7.3.2 microdilution", "type": "cell-based, Candida fermentati", "details": "n = 2"}, "[14]": {"test_system": "McLDM-F5", "assay": "microbe, parasite or virus in culture", "type": "cell-based, Saccharomyces cerevisiae AD2Δgal", "details": "Saccharomyces cerevisiae, read-out: mean MIC"}, "[15]": {"test_system": "Cryptococcus neoformans var grubii", "assay": "microbe, parasite or virus in culture", "type": "cell-based", "details": "read-out: Minimal Inhibitory Concentration (MIC)"}, "[16]": {"test_system": "Candida auris isolates", "assay": "Disc diffusion, Oxoid discs", "type": "cell-based", "details": "25 µg FLU and 5 µg CAS discs; […]"}, "[17]": {"test_system": "environmental yeasts from a lagoon", "assay": "organism not typed", "type": "cell-based"}, "[18]": {"test_system": "C. albicans SC5314 experimental population", "assay": "Experimental evolution under fluconazole, azole susceptibility", "type": "cell-based", "details": "Candida albicans"}, "[19]": {"test_system": "Candida lipolytica", "assay": "CLSI M44 agar diffusion", "type": "cell-based"}, "[20]": {"test_system": "A. fumigatus isolates from BAL", "assay": "Sensititre YeastOne Y010, read according to CLSI (2020)", "type": "cell-based, Aspergillus fumigatus", "method": "Materials & Methods: Retrospective evaluation of antifungal susceptibility for A. fumigatus isolates from bronchoalveolar lavage (BAL) fluid in pts with invasive pulmonary aspergillosis was performed. All isolates were obtained from hematological pts admitted to National Research Center for Hematology (Moscow) between 2016 and 2020. All A. fumigatus species were identified by morphology, matrix-assisted laser desorption ionization time of flight mass spectrometry. The azole-resistant strains were identified by ITS, β-tubulin, calmodulin and actine gene sequencing. […] The MIC of antifungal agents were read according to the CLSI (2020). Cyp51A was sequenced to establish the most common resistance mechanisms embedded in azole-resistant A. fumigatus."}, "[21]": {"test_system": "Fusarium solani (FS) mature biofilms", "assay": "XTT biofilm damage assay", "type": "cell-based", "method": "(§1) Materials & Methods: 10^5 cfu/mL of FS (n = 3) and SA (n = 3) BF-producing strains were incubated in RPMI at 37 °C for 48 h. PMN were isolated from healthy volunteers by dextran sedimentation/ficoll centrifugation. BF were incubated with PMN at effector-to-target ratio 5:1 alone or in combination with L-AMB (FS: 0.25/2/32 mg/L; SA: 0.25/1/16 mg/L) or VRC (FS: 8/64 mg/L; SA: 0.5/32 mg/L) at 37 °C/5% CO2 for 24 h. Antifungal activity was assessed by XTT reduction assay of metabolic activity. […] The % damage of the PMN+drug treatment was compared to that of PMN or drug alone by ANOVA (n = 8, p < 0.05)."}, "[22]": {"test_system": "Scedosporium apiospermum (SA) mature biofilms", "assay": "XTT biofilm damage assay", "type": "cell-based", "method": "as §1"}, "[23]": {"test_system": "Aspergillus isolates (total)", "assay": "Triazole resistance agar screening, four-well plate", "details": "RPMI agar, 1 µg/mL, 50 isolates", "quoted_text": "All the isolates were identified phenotypically. […] Fungal spores were suspended in normal saline (0.85%) and adjusted to 0.5 McFarland and 50 μL was plated in each well. […] Plates were incubated at 35–37 °C for 72 h in ambient air. The presence or absence of growth was observed visually at 24 h, 48 h, and 72 h."}},
  "note": "Where two headings read alike, the source gives them in different places.",
  "data": [
    {"smiles": "CCC(C)n1ncn(-c2ccc(N3CCN(c4ccc(OCC5COC(Cn6cncn6)(c6ccc(Cl)cc6Cl)O5)cc4)CC3)cc2)c1=O", "note": "(stereo not shown) [itraconazole]", "values": [
      {"measurement": "median trough drug level", "setting": "[1]", "result": 0.76, "unit": "mg/L"},
      {"measurement": "isolates with values equal to the clinical breakpoint", "setting": "[2]", "result": 33, "unit": "%"},
      {"measurement": "resistance of isolates", "setting": "[2]", "result": "No resistance"},
      {"measurement": "MIC", "setting": "[3]; Aspergillus fumigatus, Group II, 5 strains, direct inoculation method", "result": "2 to 4", "unit": "µg/mL"},
      {"measurement": "MIC", "setting": "[3]; Aspergillus fumigatus, Group II, the same 5 strains, EUCAST method", "result": "0.5 to 1", "unit": "µg/mL"}
    ]},
    {"smiles": "C[C@@H]1[C@H](O)[C@@H](C)/C=C/C=C/C=C/C=C/C=C/C=C/C=C/[C@H](O[C@@H]2O[C@H](C)[C@@H](O)[C@H](N)[C@@H]2O)C[C@@H]2O[C@](O)(C[C@@H](O)C[C@@H](O)[C@H](O)CC[C@@H](O)C[C@@H](O)CC(=O)O[C@H]1C)C[C@H](O)[C@H]2C(=O)O", "note": "[amphotericin B]", "values": [
      {"measurement": "susceptibility", "setting": "[4]", "result": "susceptible"},
      {"measurement": "MIC", "setting": "[5]", "result": 0.06, "unit": "µg/mL"},
      {"measurement": "MIC", "setting": "[6]", "result": "> 32", "unit": "µg/mL"},
      {"measurement": "isolates within the wildtype distribution range", "setting": "[7]", "result": 100, "unit": "%"},
      {"measurement": "isolates within the wildtype distribution range", "setting": "[8]", "result": 98.6, "unit": "%"},
      {"measurement": "isolates within the wildtype distribution range", "setting": "[9]", "result": 92.9, "unit": "%"},
      {"measurement": "MIC", "setting": "[10]", "result": 0.5, "unit": "µg/mL"},
      {"measurement": "minimal inhibitory concentrations (MIC), in words", "setting": "[11]", "result": "higher"},
      {"measurement": "S (sensitive) isolates, n (%)", "setting": "[12]", "result": "7 (100%)"},
      {"measurement": "GM", "setting": "[13]", "result": 0.125, "unit": "µg/mL"},
      {"measurement": "MIC Range", "setting": "[13]", "result": "0.125 to 0.25", "unit": "µg/mL"}
    ]},
    {"smiles": "OC(Cn1cncn1)(Cn1cncn1)c1ccc(F)cc1F", "note": "[fluconazole]", "values": [
      {"measurement": "resistant isolates", "setting": "[4]", "result": 6.4, "unit": "%"},
      {"measurement": "MIC", "setting": "[14]", "result": 42.7, "unit": "µg/mL"},
      {"measurement": "MIC", "setting": "[15]", "result": "> 32", "unit": "µg/mL"},
      {"measurement": "median zone diameter (ZD)", "setting": "[16]", "result": 0, "unit": "mm"},
      {"measurement": "isolates classified as resistant-like", "setting": "[17]; number of 71 yeasts, MIC at or above Candida breakpoint", "result": "Fifty-five"},
      {"measurement": "MIC", "setting": "[17]; range, read-out: MIC of resistant-like isolates", "result": "64 to 2050", "unit": "µg/mL"},
      {"measurement": "isolates within the wildtype distribution range", "setting": "[7]", "result": 96.8, "unit": "%"},
      {"measurement": "isolates within the wildtype distribution range", "setting": "[8]", "result": 83.6, "unit": "%"},
      {"measurement": "isolates within the wildtype distribution range", "setting": "[9]", "result": 92.5, "unit": "%"},
      {"measurement": "MIC", "setting": "[10]", "result": 8, "unit": "µg/mL"},
      {"measurement": "MIC", "setting": "[18]; SC5314", "result": 0.5, "unit": "µg/mL"},
      {"measurement": "MIC", "setting": "[18]; SC5314, 168 h", "result": 8, "unit": "µg/mL"},
      {"measurement": "GM", "setting": "[13]", "result": 2, "unit": "µg/mL"},
      {"measurement": "MIC Range", "setting": "[13]", "result": 2, "unit": "µg/mL"},
      {"measurement": "resistant isolates", "setting": "[19]; […], discs 25 μg fluconazole, 1 μg voriconazole", "result": 67, "unit": "%"}
    ]},
    {"smiles": "C[C@@H](c1ncncc1F)[C@](O)(Cn1cncn1)c1ccc(F)cc1F", "note": "[voriconazole]", "values": [
      {"measurement": "MIC", "setting": "[14]", "result": 0.58, "unit": "µg/mL"},
      {"measurement": "median trough drug level", "setting": "[1]", "result": 0.82, "unit": "mg/L"},
      {"measurement": "isolates with elevated MIC", "setting": "[20]; 2 of 35", "result": 5.7, "unit": "%"},
      {"measurement": "MIC", "setting": "[20]; Aspergillus fumigatus, BAL, read-out: elevated minimum inhibitory concentrations (MIC)", "result": "> 8", "unit": "µg/mL"},
      {"measurement": "minimal inhibitory concentrations (MIC), in words", "setting": "[11]", "result": "low"},
      {"measurement": "MIC50", "setting": "[21]; Fusarium solani, read-out: BF MIC50 (≥50% BF damage), XTT, 24 h, 37 °C", "result": "> 256", "unit": "µg/mL"},
      {"measurement": "interaction of drug+PMN vs drug alone", "setting": "[21]; VRC 64 mg/L, PMN 5:1", "result": "antagonism"},
      {"measurement": "MIC50", "setting": "[22]; Scedosporium apiospermum, read-out: BF MIC50 (≥50% BF damage), XTT, 24 h, 37 °C", "result": 32, "unit": "µg/mL"},
      {"measurement": "BF damage", "setting": "[22]; VRC 32 mg/L + PMN 5:1", "result": "69.5 ± 3", "unit": "%"},
      {"measurement": "BF damage", "setting": "[22]; VRC 32 mg/L alone", "result": "61 ± 4", "unit": "%"},
      {"measurement": "isolates in the area of technical uncertainty (ATU)", "setting": "[2]", "result": 47, "unit": "%"},
      {"measurement": "S (sensitive) isolates, n (%)", "setting": "[12]", "result": "7 (100%)"},
      {"measurement": "resistant isolates", "setting": "[19]", "result": 58, "unit": "%"},
      {"measurement": "isolates with growth only in voriconazole well, n (%)", "setting": "[23]; 48 h", "result": "1 (2%)"},
      {"measurement": "isolates with growth only in voriconazole well, n (%)", "setting": "[23]; 72 h", "result": "16 (32%)"},
      {"measurement": "MIC", "setting": "[3]; Aspergillus fumigatus, Group I, one resistant isolate", "result": "2 to 4", "unit": "µg/mL"},
      {"measurement": "MIC", "setting": "[3]; Group III, one isolate, EUCAST methods", "result": 2, "unit": "µg/mL"},
      {"measurement": "MIC", "setting": "[3]; Group III, the same isolate, direct inoculation", "result": 1, "unit": "µg/mL"}
    ]}
  ]
}
